Data taken from ChEMBL document CHEMBL2057129, “Evaluation of synthetic FK506 analogues as ligands for the FK506-binding proteins 51 and 52” (J Med Chem, 2012).

Tests used:
[1] = biological target: Peptidyl-prolyl cis-trans isomerase FKBP1A (Homo sapiens, UniProt P62942); assay: Binding affinity to FKBP12 by fluorescence polarization assay
[2] = biological target: T1, Peptidyl-prolyl cis-trans isomerase FKBP5 (Homo sapiens, UniProt Q13451); assay: Binding affinity to FKBP51 FK1 domain by fluorescence polarization assay
T1 sequence (Q13451 whole entry): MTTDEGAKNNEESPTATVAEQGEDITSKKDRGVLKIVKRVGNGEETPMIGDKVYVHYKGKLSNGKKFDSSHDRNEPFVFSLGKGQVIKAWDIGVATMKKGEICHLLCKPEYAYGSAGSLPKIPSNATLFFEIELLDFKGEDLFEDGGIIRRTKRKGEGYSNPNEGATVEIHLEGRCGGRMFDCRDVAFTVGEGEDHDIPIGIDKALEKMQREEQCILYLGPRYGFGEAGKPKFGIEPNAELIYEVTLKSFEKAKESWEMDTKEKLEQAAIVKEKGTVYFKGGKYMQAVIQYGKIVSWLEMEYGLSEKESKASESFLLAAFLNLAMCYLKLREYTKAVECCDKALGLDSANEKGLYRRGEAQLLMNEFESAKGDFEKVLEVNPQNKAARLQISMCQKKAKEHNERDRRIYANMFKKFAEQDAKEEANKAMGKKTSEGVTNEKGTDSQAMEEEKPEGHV

[3] = biological target: T2, Peptidyl-prolyl cis-trans isomerase FKBP4 (Homo sapiens, UniProt Q02790); assay: Binding affinity to FKBP52 FK1 domain by fluorescence polarization assay
T2 sequence (Q02790 whole entry): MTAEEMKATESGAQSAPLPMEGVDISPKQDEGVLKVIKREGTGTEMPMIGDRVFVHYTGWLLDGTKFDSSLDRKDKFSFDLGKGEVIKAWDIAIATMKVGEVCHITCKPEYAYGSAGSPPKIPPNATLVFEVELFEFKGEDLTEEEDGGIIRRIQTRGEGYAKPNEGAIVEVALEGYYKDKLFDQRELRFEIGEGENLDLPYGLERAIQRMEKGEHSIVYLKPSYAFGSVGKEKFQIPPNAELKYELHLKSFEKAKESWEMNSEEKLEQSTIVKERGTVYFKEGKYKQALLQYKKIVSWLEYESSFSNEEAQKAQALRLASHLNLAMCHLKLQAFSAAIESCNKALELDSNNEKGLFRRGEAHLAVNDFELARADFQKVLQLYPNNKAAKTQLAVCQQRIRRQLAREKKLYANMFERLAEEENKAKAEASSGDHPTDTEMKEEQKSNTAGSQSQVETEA

Chain of Peptidyl-prolyl cis-trans isomerase FKBP1A (P62942 whole entry, the tested form may be a part): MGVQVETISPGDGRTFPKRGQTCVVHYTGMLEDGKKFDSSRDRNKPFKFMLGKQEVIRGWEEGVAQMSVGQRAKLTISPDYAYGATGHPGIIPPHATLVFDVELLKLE

| Structure (SMILES) | IC50 [1] [nM] | IC50 [2] [µM] | IC50 [3] [µM] |
| --- | --- | --- | --- |
| COc1ccc(OCCOC(=O)[C@@H]2CCCCN2C(=O)C(=O)[C@]2(O)CCCC[C@H]2C)cc1OC (mixture of isomers) | 310 | 29.4 | 11.7 |
| CCC(C)(C)C(=O)C(=O)N1CCCC[C@H]1C(=O)O[C@H](CCc1ccc(OC)c(OC)c1)c1cccc(N)c1 | – | 3.8 | 1.07 |
| CCC(C)(C)C(=O)C(=O)N1CCCC[C@H]1C(=O)NC(CCc1ccc(OC)c(OC)c1)c1cccc(OCC(=O)O)c1 (mixture of isomers) | 3380 | > 100 | > 100 |
| CCC(C)(C)C(=O)C(=O)N1CCC[C@H]1C(=O)OCCCc1cccnc1 [GPI-1046] | 1240 | > 100 | > 100 |
| CCC(C)(C)C(=O)C(=O)N1CCCC[C@H]1C(=O)OCCOc1ccc(OC)c(OC)c1 | 2450 | > 100 | > 100 |
| COc1ccc(CC[C@@H](OC(=O)[C@@H]2CCCCN2C(=O)C(=O)c2cc(OC)c(OC)c(OC)c2)c2cccc(OCC(=O)O)c2)cc1OC | 150 | – | – |
| CCC(C)(C)C(=O)C(=O)N1CCC[C@H]1C(=O)O[C@H](CCc1ccc(OC)c(OC)c1)c1cccc(OCCN2CCOCC2)c1 | 1050 | 15.3 | 5.55 |
| CCC(C)(C)C(=O)C(=O)N1CCCC[C@H]1C(=O)OC | 17100 | > 100 | > 100 |
| COc1ccc(CCOC(=O)[C@@H]2CCCCN2C(=O)C(=O)[C@]2(O)CCCC[C@H]2C)cc1OC (mixture of isomers) | 2200 | > 100 | > 100 |
| COc1cc(C(=O)C(=O)N(C)[C@@H](Cc2ccc(Cl)cc2)C(=O)N(Cc2ccccc2)C(CCc2ccncc2)CCc2ccncc2)cc(OC)c1OC [TIMCODAR] | > 100000 | > 100 | > 100 |
| CCC(C)(C)C(=O)C(=O)N1CC=CC[C@H]1C(=O)O[C@H](CCc1ccc(OC)c(OC)c1)c1cccc(OCC(=O)O)c1 | 550 | – | – |
| COc1cc(C(=O)C(=O)N2CCCC[C@H]2C(=O)OC(CCCc2cccnc2)CCCc2cccnc2)cc(OC)c1OC [BIRICODAR] | 17 | 8.52 | 7.37 |
| CCC(C)(C)C(=O)C(=O)N1CCCC[C@H]1C(=O)OCCCc1cccnc1 | 2110 | > 150 | > 150 |

Next, values leading:

| IC50 [1] [nM] | IC50 [2] [µM] | IC50 [3] [µM] | Structure (SMILES) |
| --- | --- | --- | --- |
| 570 | – | – | CC[C@H]1CCCC[C@@]1(O)C(=O)C(=O)N1CCCC[C@H]1C(=O)O[C@H](CCc1ccc(OC)c(OC)c1)c1cccc(OCC(=O)O)c1 (mixture of isomers) |
| 2780 | > 100 | > 100 | CC[C@@H]1CCCC[C@@]1(O)C(=O)C(=O)N1CCCC[C@H]1C(=O)OCCOc1ccc(OC)c(OC)c1 (mixture of isomers) |
| 50 | – | – | COc1ccc(CC[C@@H](OC(=O)[C@@H]2CCCCN2C(=O)C(=O)[C@@]2(O)CCCC[C@@H]2C)c2cccc(OCC(=O)O)c2)cc1OC |
| 100 | – | 2.8 | CCC(C)(C)C(=O)C(=O)N1CCCC[C@H]1C(=O)O[C@H](CCc1ccc(OC)c(OC)c1)c1cccc(OCCN2CCOCC2)c1 |
| 170 | – | 10.5 | CCC(C)(C)C(=O)C(=O)N1CCCC[C@H]1C(=O)O[C@H](CCc1ccc(OC)c(OC)c1)c1cccc(OCC(=O)O)c1 |
| 60 | – | – | COc1ccc(CC[C@@H](OC(=O)[C@@H]2CCCCN2C(=O)C(=O)[C@@]2(O)CCCC[C@H]2C)c2cccc(OCC(=O)O)c2)cc1OC |
| 510 | – | – | COc1ccc(CC[C@@H](OC(=O)[C@@H]2CCCCN2C(=O)C(=O)[C@]2(O)CCCC[C@H]2CO)c2cccc(OCC(=O)O)c2)cc1OC |
| 320 | – | – | CC[C@@H]1CCCC[C@@]1(O)C(=O)C(=O)N1CCCC[C@H]1C(=O)O[C@H](CCc1ccc(OC)c(OC)c1)c1cccc(OCC(=O)O)c1 (mixture of isomers) |
| 60 | – | – | COc1ccc(CC[C@@H](OC(=O)[C@@H]2CCCCN2C(=O)C(=O)[C@]2(O)CCCC[C@H]2C)c2cccc(OCCN3CCOCC3)c2)cc1OC (mixture of isomers) |
| 50 | – | – | COc1ccc(CC[C@@H](OC(=O)[C@@H]2CCCCN2C(=O)C(=O)[C@]2(O)CCCC[C@@H]2C)c2cccc(OCC(=O)O)c2)cc1OC |
| 130 | – | – | CC[C@@H]1CCCC[C@@]1(O)C(=O)C(=O)N1CCCC[C@H]1C(=O)O[C@H](CCc1ccc(OC)c(OC)c1)c1cccc(OCC(=O)O)c1 |
| 800 | – | – | CCC(C)(C)C(=O)C(=O)N1CCC[C@H]1C(=O)O[C@H](CCc1ccc(OC)c(OC)c1)c1cccc(OCC(=O)O)c1 |
| 343 | – | – | CC[C@H]1CCCC[C@]1(O)C(=O)C(=O)N1CCCC[C@H]1C(=O)O[C@H](CCc1ccc(OC)c(OC)c1)c1cccc(OCC(=O)O)c1 |
| 60 | – | – | COc1ccc(CC[C@@H](OC(=O)[C@@H]2CCCCN2C(=O)C(=O)[C@]2(O)CCCC[C@@H]2C)c2cccc(OCC(=O)O)c2)cc1OC (mixture of isomers) |
| 60 | – | – | COc1ccc(CC[C@@H](OC(=O)[C@@H]2CCCCN2C(=O)C(=O)[C@]2(O)CCCC[C@H]2C)c2cccc(OCC(=O)O)c2)cc1OC (mixture of isomers) |
| 470 | – | – | CC[C@@H]1CCCC[C@@]1(O)C(=O)C(=O)N1CCCC[C@H]1C(=O)O[C@H](CCc1ccc(OC)c(OC)c1)c1cccc(OCCN2CCOCC2)c1 (mixture of isomers) |
| 1290 | > 100 | > 100 | CCC(C)(C)C(=O)C(=O)N1CCSC[C@H]1C(=O)O[C@H](CCc1ccc(OC)c(OC)c1)c1cccc(OCC(=O)O)c1 |
| 60 | – | – | COc1ccc(CC[C@@H](OC(=O)[C@@H]2CCCCN2C(=O)C(=O)[C@]2(O)CCCC[C@H]2C)c2cccc(OCC(=O)O)c2)cc1OC |
